{"source": "patent US8361758B2", "about": "“Microorganism of Corynebacterium genus having resistance to kanamycin and enhanced L-lysine productivity and method of producing L-lysine using the same” (priority 2005, dated 2013)", "key": {"[1]": {"system": "Corynebacterium glutamicum KFCC10881-CJP5103", "assay": "Resistance to kanamycin: growth on minimal agar plate medium containing kanamycin", "type": "cell-based", "settings": "Kanamycin 5 mg/l, cultured four days, kanamycin-resistant mutant", "method": "(§1) Next, an experiment of resistance to kanamycin with respect to the selected mutant resistant to kanamycin, Corynebacterium glutamicum KFCC10881-CJP5103, and the parent bacteria was performed. First, the two microorganisms were cultured in a Luria Bertani (LB) liquid medium for 16 hours, and then the cells were washed using sterile normal saline two times. Then, the washed cells were properly diluted and the resulting product was cultured in a minimal agar plate medium containing kanamycin having a concentration of 5 mg/l for four days to measure productivity of each microorganism. A composition of the minimal agar plate medium is the same as follows: 10 g of glucose, 2 g of (NH4)2SO4, 2 g of urea, 1.0 g of KH2PO4, 3.0 g of K2HPO4, 0.5 g of MgSO4.7H2O, 10 mg of FeSO4.7H2O, 10 mg of MnSO4.7H2O, 100 μg of biotin, 100 lag of thiamine. HCl, 100 μg of CaCl2.2H2O, 80 μg of Na2B4O7.10H2O, 40 μg of (NH4)6MoO27.4H2O, 10 μg of ZnSO4.7 H2O, 300 μg of CuSO4.7 H2O, 10 μg of MnCl2.4H2O, 1 mg of FeCl3.6H2O, 20 g of agar, 0.1 g of L-leucine if necessary, 0.1 g of L-threonine if necessary, 0.1 g of L-methionine if necessary, per 1 L of distilled water (pH 7.0).\n(§2) The results of measuring productivity of the mutant and the parent bacteria in a kanamycin-containing medium are shown in Table. 1."}, "[2]": {"system": "Corynebacterium glutamicum KFCC10881", "assay": "Resistance to kanamycin: growth on minimal agar plate medium containing kanamycin", "type": "cell-based", "settings": "Kanamycin 5 mg/l, cultured four days, parent strain", "method": "as §1, §2"}}, "data": [{"compound": "NC[C@H]1O[C@H](O[C@H]2[C@H](O)[C@@H](O[C@H]3O[C@H](CO)[C@@H](O)[C@H](N)[C@H]3O)[C@H](N)C[C@@H]2N)[C@H](O)[C@@H](O)[C@@H]1O", "note": "[Kanamycin, kanamycin]", "values": [{"measurement": "Growth of KFCC-10881-CJP5103 in kanamycin-containing medium", "setting": "[1]", "value": "+++"}, {"measurement": "Growth of KFCC-10881 in kanamycin-containing medium", "setting": "[2]", "value": "−"}]}]}
